The results in this text go back to ChEMBL document CHEMBL4431371, “Targeting the Cystic Fibrosis Transmembrane Conductance Regulator (CFTR) Protein for the Treatment of Cystic Fibrosis” (ACS Med Chem Lett, 2016).

In test [1] the test system is Cystic fibrosis transmembrane conductance regulator (Homo sapiens), P13569 [F508del]. The experiment in a line: (§1) Corrector activity at CFTR F508del mutant (unknown origin) expressed in human CFBE41o cells incubated for 18 to 24 hrs by CSE-HRP assay. Type of test: cell-based.
Cystic fibrosis transmembrane conductance regulator (Homo sapiens), P13569 [F508del], sequence (P13569 as listed by the source): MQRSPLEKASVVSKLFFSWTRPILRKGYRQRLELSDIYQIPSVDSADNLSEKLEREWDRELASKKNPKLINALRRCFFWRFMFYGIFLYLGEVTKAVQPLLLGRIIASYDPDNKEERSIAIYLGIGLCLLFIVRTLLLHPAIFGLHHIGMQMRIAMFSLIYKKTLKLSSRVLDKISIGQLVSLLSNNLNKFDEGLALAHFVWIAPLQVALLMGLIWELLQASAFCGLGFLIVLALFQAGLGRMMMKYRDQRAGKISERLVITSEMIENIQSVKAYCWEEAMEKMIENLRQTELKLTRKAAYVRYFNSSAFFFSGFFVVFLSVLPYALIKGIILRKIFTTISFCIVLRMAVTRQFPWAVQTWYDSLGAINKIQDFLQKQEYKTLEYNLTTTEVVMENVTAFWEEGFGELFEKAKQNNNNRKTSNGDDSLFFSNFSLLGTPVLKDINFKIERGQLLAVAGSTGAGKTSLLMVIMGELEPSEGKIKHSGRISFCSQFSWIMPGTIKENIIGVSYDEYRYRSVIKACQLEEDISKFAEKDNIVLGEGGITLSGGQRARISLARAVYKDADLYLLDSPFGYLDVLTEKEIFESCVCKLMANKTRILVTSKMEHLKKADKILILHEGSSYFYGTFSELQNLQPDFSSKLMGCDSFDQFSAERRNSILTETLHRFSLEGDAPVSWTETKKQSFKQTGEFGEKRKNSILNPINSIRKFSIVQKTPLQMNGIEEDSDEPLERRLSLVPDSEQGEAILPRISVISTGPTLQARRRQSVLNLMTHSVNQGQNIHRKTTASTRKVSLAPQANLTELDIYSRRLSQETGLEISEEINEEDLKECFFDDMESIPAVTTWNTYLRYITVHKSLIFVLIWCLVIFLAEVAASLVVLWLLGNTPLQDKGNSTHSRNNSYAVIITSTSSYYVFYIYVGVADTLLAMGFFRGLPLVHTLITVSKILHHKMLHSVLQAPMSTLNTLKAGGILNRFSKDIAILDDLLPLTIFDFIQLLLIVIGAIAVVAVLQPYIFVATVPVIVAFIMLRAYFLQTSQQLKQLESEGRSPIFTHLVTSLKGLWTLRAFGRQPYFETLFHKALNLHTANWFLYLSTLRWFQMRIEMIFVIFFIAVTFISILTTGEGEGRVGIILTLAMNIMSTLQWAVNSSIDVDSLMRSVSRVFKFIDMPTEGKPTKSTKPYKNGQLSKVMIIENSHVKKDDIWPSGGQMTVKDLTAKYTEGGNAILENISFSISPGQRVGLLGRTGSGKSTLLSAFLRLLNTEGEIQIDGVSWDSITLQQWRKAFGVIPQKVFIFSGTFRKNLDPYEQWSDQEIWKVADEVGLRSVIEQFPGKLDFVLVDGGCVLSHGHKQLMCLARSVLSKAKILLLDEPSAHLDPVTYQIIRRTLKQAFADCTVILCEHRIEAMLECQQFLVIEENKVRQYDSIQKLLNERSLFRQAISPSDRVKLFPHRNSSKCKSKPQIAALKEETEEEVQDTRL
Test [2] concerns the target T1, Cystic fibrosis transmembrane conductance regulator (Homo sapiens, UniProt P13569, F508DEL). The description is as §1. Type of test: cell-based.
Test [3] has as its system Cystic fibrosis transmembrane conductance regulator (Homo sapiens), P13569 [F508del]. The experiment in a line: (§2) Corrector activity at CFTR F508del mutant in human bronchial epithelial cells incubated for 18 to 24 hrs by TECC-based conductance assay.
Test [4] deals with T1, Cystic fibrosis transmembrane conductance regulator. The description is as §2.

T1 sequence (P13569 as listed by the source): as above

For orientation: EC50 means the concentration giving half of the maximal effect. Low values mean higher potency in that assay, high ones lower potency in that assay. For the molecule `O=C(O)c1ccc([C@H]2C[C@@H](NC(=O)C3(c4ccc5c(c4)OC(F)(F)O5)CC3)CCO2)cc1` (racemic), the values for the max activation in test [1] and in test [3] were 113% and 73%, respectively. Besides, the EC50 in test [2] came out at 2860 nM; in test [4], 1340 nM.
In test [1], `CCOC(=O)c1cc(C)cc([C@H]2C[C@@H](NC(=O)C3(c4ccc5c(c4)OC(F)(F)O5)CC3)C[C@@H](c3ccccc3)O2)c1` (racemic) came in with a max activation of 106%. Further, in test [2], the EC50 came to 1160 nM.
As to `O=C(O)c1cccc([C@@H]2C[C@H](NC(=O)C3(c4ccc5c(c4)OC(F)(F)O5)CC3)C[C@H](c3ccccc3)O2)c1`, the max activation in test [1] amounted to 16%. Besides, the response in test [2] was half-maximal at 20000 nM (EC50).
Regarding `O=C(O)c1ccc([C@H]2C[C@@H](NC(=O)C3(c4ccc5c(c4)OC(F)(F)O5)CC3)C[C@@H](c3ccccc3)O2)cc1`, the figures for the max activation in test [1] and in test [3] were 81% and 73%, respectively. In addition, the EC50 in test [2] is 300 nM; in test [4] it was 260 nM.
Molecule `O=C(O)c1cccc([C@H]2C[C@@H](NC(=O)C3(c4ccc5c(c4)OC(F)(F)O5)CC3)CCO2)c1` (racemic) yielded a max activation in test [1] of 71%. The molecule further gave an EC50 in test [2] of 850 nM.
Take `O=C(O)c1cccc([C@H]2C[C@@H](NC(=O)C3(c4ccc5c(c4)OC(F)(F)O5)CC3)C[C@@H](c3ccccc3)O2)c1`: the max activation in test [1] came to 109%; in test [3] it was 94%. Moreover, the half-maximal effective concentration (EC50) in test [2] amounted to 280 nM; in test [4], 100 nM.
